# Experimental data: ChEMBL document CHEMBL3600300, “Cytotoxic triterpene saponins from Cercodemas anceps” (Bioorg Med Chem Lett, 2015)
# Tests used:
# Type in all cases: functional, cell-based
# KB = experiment: Cytotoxicity against human KB cells after 48 hrs by SRB assay
# MCF7 = experiment: Cytotoxicity against human MCF7 cells after 48 hrs by SRB assay; details: MCF7, 48 h
# SK-MEL-2 = experiment: Cytotoxicity against human SK-MEL-2 cells after 48 hrs by SRB assay; details: SK-MEL-2, 48 h
# HepG2 = experiment: Cytotoxicity against human HepG2 cells after 48 hrs by SRB assay; details: HepG2, 48 h
# LNCaP = experiment: Cytotoxicity against human LNCAP cells after 48 hrs by SRB assay
Structure (SMILES),IC50 (KB) [nM],IC50 (MCF7) [nM],IC50 (SK-MEL-2) [nM],IC50 (HepG2) [nM],IC50 (LNCaP) [nM]
CO[C@@H]1[C@@H](O)[C@H](O[C@@H]2[C@@H](O)[C@H](O[C@H]3[C@H](O)[C@@H](O)[C@H](O[C@H]4[C@H](O[C@H]5CC[C@]6(C)[C@H]7CC[C@]89C(=O)O[C@@](C)(CCC=C(C)C)[C@H]8[C@@H](OC(C)=O)C[C@@]9(C)C7=CC[C@H]6C5(C)C)OC[C@@H](OS(=O)(=O)O)[C@@H]4O)O[C@@H]3C)OC[C@H]2O)O[C@H](CO)[C@H]1O,110,370,850,1160,1190
CC(C)CCC[C@]1(C)OC(=O)[C@]23CC=C4[C@@H](CC[C@H]5C(C)(C)[C@@H](O[C@@H]6OC[C@@H](OS(=O)(=O)O)[C@H](O)[C@H]6O[C@H]6O[C@H](C)[C@@H](O)[C@H](O)[C@H]6O)CC[C@]45C)[C@]2(C)CC(=O)[C@@H]31,480,1090,4090,2050,2110
CO[C@@H]1[C@@H](O)[C@H](O[C@@H]2[C@@H](O)[C@H](O[C@H]3[C@H](O)[C@@H](O[C@@H]4OC[C@@H](O)[C@H](O)[C@H]4O)[C@H](O[C@H]4[C@H](O[C@H]5CC[C@]6(C)C7=CC[C@]89C(=O)O[C@@](C)(CCCC(C)C)[C@H]8C(=O)C[C@@]9(C)[C@@H]7CC[C@H]6C5(C)C)OC[C@@H](OS(=O)(=O)O)[C@@H]4O)O[C@@H]3C)O[C@H](COS(=O)(=O)O)[C@H]2O)O[C@H](CO)[C@H]1O,30,130,110,70,170
Cc1c2ccncc2c(C)c2c1[nH]c1ccccc12 [ELLIPTECINE],2070,1950,2150,1710,1990
C=C(C)CCC[C@]1(C)OC(=O)[C@]23CC=C4[C@@H](CC[C@H]5C(C)(C)[C@@H](O[C@@H]6OC[C@@H](OS(=O)(=O)O)[C@H](O)[C@H]6O[C@H]6O[C@H](C)[C@@H](O)[C@H](O)[C@H]6O)CC[C@]45C)[C@]2(C)CC(=O)[C@@H]31,1370,1330,7360,6080,3300
CC(C)CCC[C@]1(C)OC(=O)[C@]23CC=C4[C@@H](CC[C@H]5C(C)(C)[C@@H](O[C@@H]6OC[C@@H](OS(=O)(=O)O)[C@H](O)[C@H]6O[C@H]6O[C@H](C)[C@H](O[C@@H]7O[C@H](COS(=O)(=O)O)[C@@H](O)[C@H](O)[C@H]7O)[C@H](O)[C@H]6O)CC[C@]45C)[C@]2(C)CC(=O)[C@@H]31,250,560,1470,970,1190
C=C(C)CCC[C@]1(C)OC(=O)[C@]23CC=C4[C@@H](CC[C@H]5C(C)(C)[C@@H](O[C@@H]6OC[C@@H](OS(=O)(=O)O)[C@H](O)[C@H]6O[C@H]6O[C@H](C)[C@H](O[C@@H]7O[C@H](COS(=O)(=O)O)[C@@H](O)[C@H](O)[C@H]7O)[C@H](O)[C@H]6O)CC[C@]45C)[C@]2(C)CC(=O)[C@@H]31,320,1030,1250,4690,1920
C=C(C)CCC[C@]1(C)OC(=O)[C@]23CC=C4[C@@H](CC[C@H]5C(C)(C)[C@@H](O[C@@H]6OC[C@@H](OS(=O)(=O)O)[C@H](O)[C@H]6O[C@@H]6O[C@H](C)[C@@H](O[C@@H]7O[C@H](COS(=O)(=O)O)[C@@H](O)[C@H](O[C@@H]8O[C@H](CO)[C@@H](O)[C@H](OC)[C@H]8O)[C@H]7O)[C@H](O)[C@H]6O[C@@H]6OC[C@@H](O)[C@H](O)[C@H]6O)CC[C@]45C)[C@]2(C)CC(=O)[C@@H]31,40,200,240,70,230
